Reference: patent publication US8216595B2 (priority 2007, dated 2012)
Like-named read-outs stand apart in the source and are kept apart here.

What was measured:
Settings in all cases: mouse, in vivo
HBsAg (S-protein) [1] = system: HBsAg (S-protein); set-up: species or system C57BL/6 female mice
HA antigen = system: HA antigen; set-up: species or system C57BL/6 female mice
preS antigen [2] = system: preS antigen; set-up: species or system C57BL/6 female mice
HBsAg = system: HBsAg
preS antigen [3] = system: preS antigen; set-up: species or system C57BL/6 female mice; remark: listed apart in the source
HBsAg (S-protein) [4] = system: HBsAg (S-protein); set-up: species or system C57BL/6 female mice; remark: listed apart in the source

| Compound | IgG2a/IgG1 (%) (HBsAg (S-protein) [1]) | IgG2b/IgG1 (%) (HBsAg (S-protein) [1]) | HA antibody titer (HA antigen) | preS antibody titer (preS antigen [2]) | IgG2a/IgG1 (%) (HBsAg) | IgG2b/IgG1 (%) (HBsAg) | preS antibody titer (preS antigen [3]) | HBsAg antibody titer (HBsAg (S-protein) [4]) |
| --- | --- | --- | --- | --- | --- | --- | --- | --- |
| CCCCCCCCCCCCCCCC(=O)N[C@@H](CSC[C@@H](COC(=O)CCCCCCCCCCCCCCC)OC(=O)CCCCCCCCCCCCCCC)C(=O)N[C@@H](CO)C(=O)N[C@@H](CCCCN)C(=O)N[C@@H](CCCCN)C(=O)N[C@@H](CCCCN)C(=O)N[C@@H](CCCCN)C(=O)O (racemic) [Pam3Cys-SKKKK, N-palmitoyl-S-[2,3-bis(palmitoyloxy)-(2RS)-propyl]-[R]-cystein-SKKKK] | 8.9 | 153.9 | 6.8 × 10^5 | 6.2 × 10^5 | 17.4 | 159.4 | 1.3 × 10^5 | 6.5 × 10^5 |
| FSL-1 | – | – | – | – | 9.3 | 122.5 | 1.4 × 10^5 | 4.4 × 10^5 |
| polyinosinic:polycytidylic acid [Poly I:C] | 9.1 | 66.4 | 8.6 × 10^5 | 6.5 × 10^5 | 8.04 | 89.05 | 2.3 × 10^5 | 6.3 × 10^5 |
